Converted amounts (≈) assume the structure as drawn.
Tests used:
Glaesserella parasuis = assay: MIC determination, agar-dilution (chocolate agar GC II), field isolates; format: cell-based
Procedure: (§1) This study determined the in vitro activity Compound (A), the enantiomer of the compound of Formula (I), against different isolates of Actinobacillus (A.) pleuropneumoniae, Bordetella (B.) bronchiseptica, Mannheimia (M.) haemolytica, Pasteurella (P.) multocida, Histophilus (H.) somni and Glaesserella parasuis collected in different European countries.
(§2) The in vitro activity was determined by measuring the minimum inhibitory concentrations (MIC) according to CLSI document VET01-A4 [1] and by calculating MIC50 and MIC90.
(§3) A total of 193 field isolates were tested: 31 of A. pleuropneumoniae, 20 of B. bronchiseptica, 20 of H. somni, 20 H. parasuis, 55 of M. haemolytica and 47 of P. multocida. All bacteria were isolated from the respiratory tract of cattle and swine suffering from respiratory disease. All isolates were epidemiologically unrelated as specified by the different suppliers. E. coli ATCC 25922 (ID 6105) and M. haemolytica ATCC 33396 (ID 6374) were used as reference strains for testing isolates of B. bronchiseptica, M. haemolytica and P. multocida. A. pleuropneumoniae ATCC 27090 (ID 6314) and H. somni ATCC 700025 (ID 6315) were used as reference strains for the testing isolates of A. pleuropneumoniae, H. somni and Glaesserella parasuis. Additionally, H. parasuis (G. parasuis) ATCC 19417 was included as type strain for growth control.
(§4) • Mueller-Hinton agar (Becton Dickinson, Lot 9224866) • Cation-adjusted Mueller-Hinton broth, (CAVHB, Becton Dickinson, Lot 8190586) • Sheep blood, defibrinated (Thermo Scientific, Lot 37091500) • Chocolate agar, GC II with IsoVitalex™ (Becton Dickinson, Lot 0147695) • GC-agar base (Becton Dickinson, Lot 6082608) • Hemoglobin solution (Becton Dickinson, Lot 7142854) • Vitox (Oxoid, Lot 2344976) • Veterinary fastidious Medium (VFM), prepared according to CLSI document VET01-A4 [1], containing: • CAMHB (Becton Dickinson, Lot 8190586) • Yeast extract (Sigma, Lot BCBS5470V) • Lysed horse blood (Thermo Scientific, Lot 35875000) • Supplement C™ (Becton Dickinson, Lot 8030960) • Deionized water
(§5) The MICs for all isolates except for H. somni and Glaesserella parasuis isolates, were determined by using the broth-microdilution method according to CLSI document VET01-A4 [1]. For isolates of H. somni and Glaesserella parasuis the agar-dilution method with chocolate agar GC II, was used. The test concentration range for all compounds was 16 μg/mL to 0.016 μg/mL.
(§6) For isolates tested by the agar-dilution method, results were interpreted according to the CLSI document VET01-S3 [2]. […] The MIC50 and MIC90 represent the concentrations at which a minimum of 50% or 90% of the isolates tested are inhibited.

A. pleuropneumoniae = assay: MIC determination, broth-microdilution (CLSI VET01-A4), field isolates; format: cell-based, Actinobacillus pleuropneumoniae
Procedure: as §1, §2, §3, §4, §5
(§7) The MIC results were interpreted according to the CLSI document VET01-S3 [2]. […] All wells containing test item were compared with the growth-control wells. The lowest concentration of compound at which no visible growth (i.e. no turbidity) was detected by the unaided eye was recorded as the MIC. […]

H. somni = assay: MIC determination, agar dilution (chocolate agar GC II), field isolates; format: cell-based, Histophilus somni
Procedure: as §1, §2, §3, §4, §5, §6

M. haemolytica = assay: MIC determination, broth-microdilution (CLSI VET01-A4), field isolates; format: cell-based, Mannheimia haemolytica
Procedure: as §1, §2, §3, §4, §5
The MIC results were interpreted according to the CLSI document VET01-S3 [2]. […] All wells containing test item were compared with the growth-control wells. The lowest concentration of compound at which no visible growth (i.e. no turbidity) was detected by the unaided eye was recorded as the MIC. If a “trailing endpoint” occurs, the MIC is defined as the first concentration at which a markedly reduction (about 90%) of the inoculum is observed.
as §6

[1] = Injection site reactions in cattle; format: in vivo; settings: injectable pharmaceutical compositions
Procedure: Cattle injected with injectable pharmaceutical compositions containing Compound (A) were evaluated for reactions at the injection site. These injection site reactions were compared to the injection site reactions of cattle injected with injectable pharmaceutical compositions containing Compounds (B) and (C). The compounds were formulated as aqueous solution injectable pharmaceutical compositions or as suspension injectable pharmaceutical compositions as indicated below. These formulations were prepared as described in Examples 1 and 2. Compound (A) was formulated as both an aqueous solution using the free base form of the compound and as a suspense using the dihydrochloride salt of the compound. The composition of the aqueous solution injectable pharmaceutical composition was 15% w/v of Compound A, 15% w/v Poloxamer […], 6% w/v Benzyl Alcohol, 7% w/v Citric Acid, and QS Water. The composition of the suspension injectable pharmaceutical composition was 15% w/v Compound A (17.5% w/v HCl salt of Compound A), 0.1% w/v Kolliphor HS 15 and QS Miglyol 812. Compound A was administered to the animals in a dose of 10 mg/kilogram of body weight. Compound (B) was formulated as both an aqueous solution using the free base form of the compound and as a suspense using the dihydrochloride salt of the compound. The composition of the aqueous solution injectable pharmaceutical composition was 15% w/v of Compound B, 15% w/v Poloxamer […], 6% w/v Benzyl Alcohol, 7% w/v Citric Acid, and QS Water. The composition of the suspension injectable pharmaceutical composition was 15% w/v Compound B (17.5% w/v HCl salt of Compound B), 0.1% w/v Kolliphor HS 15 and QS Miglyol 812. Compound A was administered to the animals in a dose of 10 mg/kilogram of body weight. Compound (C) was formulated as both an aqueous solution using the free base form of the compound. The composition of the aqueous solution injectable pharmaceutical composition was 10% w/v of Compound C, 15% w/v Poloxamer […], 6% w/v Benzyl Alcohol, 7% w/v Citric Acid, and QS Water. Compound A was administered to the animals in a dose of 10 mg/kilogram of body weight. Injection sites were examined clinically by a trained person, Size of the swelling is measured with a ruler to the closest 0.5 cm horizontally, vertical and depth. These three measured values were multiplied to an estimation of the volume of the square box surrounding the observed swelling.

B. bronchiseptica = assay: MIC determination, broth-microdilution (CLSI VET01-A4), field isolates; format: cell-based, Bordetella bronchiseptica
Procedure: as §1, §2, §3, §4, §5, §7

[2] = Glaesserella parasuis, 20 isolates, agar dilution
[3] = Actinobacillus pleuropneumoniae, 31 isolates, broth microdilution
[4] = Mannheimia haemolytica, 55 isolates, broth microdilution
[5] = Bordetella bronchiseptica, 20 isolates, broth microdilution

COCCNCc1ccc(C#Cc2ccc(C(=O)N[C@H](C(=O)NO)C(C)(C)N)cc2)cc1 [Compound A]
MIC50 (Glaesserella parasuis; [2]): 1 µg/mL (≈ 2.28 µM)
MIC90 (Glaesserella parasuis; [2]): 2 µg/mL (≈ 4.56 µM)
Distribution of MICs: number of isolates with MIC 0.5 μg/mL (Glaesserella parasuis; of 20 isolates tested): 2
Distribution of MICs: number of isolates with MIC 1 μg/mL (Glaesserella parasuis; of 20 isolates tested): 12
Distribution of MICs: number of isolates with MIC 2 μg/mL (Glaesserella parasuis; of 20 isolates tested): 5
Distribution of MICs: number of isolates with MIC 4 μg/mL (Glaesserella parasuis; of 20 isolates tested): 1
MIC50 (A. pleuropneumoniae; [3]): 1 µg/mL (≈ 2.28 µM)
MIC90 (A. pleuropneumoniae; [3]): 2 µg/mL (≈ 4.56 µM)
Distribution of MICs: number of isolates with MIC 1 μg/mL (A. pleuropneumoniae; of 31 isolates tested): 22
Distribution of MICs: number of isolates with MIC 2 μg/mL (A. pleuropneumoniae; of 31 isolates tested): 9
MIC50 (H. somni; Histophilus somni, 20 isolates): 1 µg/mL (≈ 2.28 µM)
MIC90 (H. somni; Histophilus somni, 20 isolates): 2 µg/mL (≈ 4.56 µM)
Distribution of MICs: number of isolates with MIC 0.25 μg/mL (H. somni; of 20 isolates tested): 1
Distribution of MICs: number of isolates with MIC 0.5 μg/mL (H. somni; of 20 isolates tested): 1
Distribution of MICs: number of isolates with MIC 1 μg/mL (H. somni; of 20 isolates tested): 14
Distribution of MICs: number of isolates with MIC 2 μg/mL (H. somni; of 20 isolates tested): 4
MIC50 (M. haemolytica; [4]): 0.5 µg/mL (≈ 1.14 µM)
MIC90 (M. haemolytica; [4]): 0.5 µg/mL (≈ 1.14 µM)
Distribution of MICs: number of isolates with MIC 0.063 μg/mL (M. haemolytica; of 55 isolates tested): 2
Distribution of MICs: number of isolates with MIC 0.125 μg/mL (M. haemolytica; of 55 isolates tested): 6
Distribution of MICs: number of isolates with MIC 0.25 μg/mL (M. haemolytica; of 55 isolates tested): 15
Distribution of MICs: number of isolates with MIC 0.5 μg/mL (M. haemolytica; of 55 isolates tested): 27
Distribution of MICs: number of isolates with MIC 1 μg/mL (M. haemolytica; of 55 isolates tested): 5
Injection site reactions, overall assessment [1]: minor injection reactions which were resolved by Day 6
Injection site reactions, overall assessment ([1]; listed as Compound (A)): tolerated at the injection site
MIC50 (B. bronchiseptica; [5]): 8 µg/mL (≈ 18.2 µM)
MIC90 (B. bronchiseptica; [5]): 16 µg/mL (≈ 36.5 µM)
Distribution of MICs: number of isolates with MIC 8 μg/mL (B. bronchiseptica; of 20 isolates tested): 10
Distribution of MICs: number of isolates with MIC 16 μg/mL (B. bronchiseptica; of 20 isolates tested): 10
